Source: patent US20240025884A1 (Dong-A ST Co., Ltd., priority 2022, published 2024)

Target: GCN2 (Homo sapiens (Human), UniProt Q9P2K8)
Assay: GCN2 Biochemical Assay (TR-FRET, GFP-eIF2S1 substrate phosphorylation)
Settings: read-out: IC50 (GCN2 Inhibitory Activity)
In short: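 In-house GCN2 (1.6 nM 2× stock) phosphorylates GFP-eIF2S1 (50 nM 2× stock) with ATP (0.2 mM 2× stock) and tRNA, pH 7.5, 70 min at room temperature; 10-point 3.16-fold compound series. TR-FRET detection with Tb-anti-phospho antibody, 2–3 h, Ex 340/Em 490/520 nm; artifact plate spiked with phospho-substrate.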

GCN2, sequence (Q9P2K8 whole entry): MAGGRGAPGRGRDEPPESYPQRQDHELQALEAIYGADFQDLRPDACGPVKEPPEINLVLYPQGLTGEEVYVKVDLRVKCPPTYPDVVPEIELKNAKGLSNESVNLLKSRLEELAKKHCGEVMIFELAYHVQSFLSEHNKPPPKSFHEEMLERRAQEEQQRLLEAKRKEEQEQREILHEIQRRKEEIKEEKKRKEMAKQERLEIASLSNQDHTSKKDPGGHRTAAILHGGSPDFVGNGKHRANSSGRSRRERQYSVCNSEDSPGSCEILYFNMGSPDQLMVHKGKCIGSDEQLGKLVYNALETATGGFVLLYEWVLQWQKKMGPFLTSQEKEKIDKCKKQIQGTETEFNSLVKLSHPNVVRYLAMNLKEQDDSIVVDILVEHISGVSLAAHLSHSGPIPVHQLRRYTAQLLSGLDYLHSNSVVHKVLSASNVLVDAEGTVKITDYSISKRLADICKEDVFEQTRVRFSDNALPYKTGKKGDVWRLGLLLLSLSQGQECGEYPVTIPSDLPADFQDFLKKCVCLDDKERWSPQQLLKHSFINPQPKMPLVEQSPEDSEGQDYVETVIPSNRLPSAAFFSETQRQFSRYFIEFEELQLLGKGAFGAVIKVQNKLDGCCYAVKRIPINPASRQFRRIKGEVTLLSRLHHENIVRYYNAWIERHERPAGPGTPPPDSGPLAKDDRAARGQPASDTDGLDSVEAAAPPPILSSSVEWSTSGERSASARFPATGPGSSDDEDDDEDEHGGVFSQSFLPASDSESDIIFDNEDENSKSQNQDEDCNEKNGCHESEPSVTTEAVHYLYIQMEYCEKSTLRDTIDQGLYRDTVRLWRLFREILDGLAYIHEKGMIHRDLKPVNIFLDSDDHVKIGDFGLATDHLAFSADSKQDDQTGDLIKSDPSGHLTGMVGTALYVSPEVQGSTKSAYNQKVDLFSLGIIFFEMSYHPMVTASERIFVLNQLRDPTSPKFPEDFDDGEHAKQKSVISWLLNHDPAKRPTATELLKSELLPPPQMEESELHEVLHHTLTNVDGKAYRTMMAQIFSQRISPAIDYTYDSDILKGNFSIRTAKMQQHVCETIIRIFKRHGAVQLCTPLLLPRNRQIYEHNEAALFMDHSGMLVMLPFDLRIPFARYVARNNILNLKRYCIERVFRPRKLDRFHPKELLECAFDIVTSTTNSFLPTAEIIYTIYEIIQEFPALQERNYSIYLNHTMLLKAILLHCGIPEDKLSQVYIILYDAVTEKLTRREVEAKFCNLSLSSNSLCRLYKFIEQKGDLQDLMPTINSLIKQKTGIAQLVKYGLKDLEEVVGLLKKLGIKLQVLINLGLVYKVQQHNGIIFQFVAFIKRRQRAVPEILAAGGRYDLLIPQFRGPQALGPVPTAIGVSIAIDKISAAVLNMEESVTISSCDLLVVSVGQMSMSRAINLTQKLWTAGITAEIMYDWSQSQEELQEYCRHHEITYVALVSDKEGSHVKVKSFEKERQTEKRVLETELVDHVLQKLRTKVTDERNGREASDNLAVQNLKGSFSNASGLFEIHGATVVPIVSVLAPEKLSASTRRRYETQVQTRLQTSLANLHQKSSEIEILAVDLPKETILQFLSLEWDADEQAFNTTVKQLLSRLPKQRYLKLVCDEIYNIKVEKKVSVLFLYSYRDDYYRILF

| Structure (SMILES) | IC50 |
| --- | --- |
| Cc1cnc(Nc2cc(C)n(C)n2)nc1-c1c[nH]c2c(N3Cc4c(C#Cc5ccc(N)cc5)cccc4C3=O)cccc12 [Example 357, 4-((4-aminophenyl)ethynyl)-2-(3-(2-((1,5-dimethyl-1H-pyrazol-3-yl)amino)-5-methylpyrimidin-4-yl)-1H-indol-7-yl)isoindolin-1-one] | 10 to 100 nM |
| Cc1cnc(Nc2cc(C)n(C)n2)nc1-c1c[nH]c2c(N3Cc4c(/C=C/C(N)=O)cccc4C3=O)cccc12 [Example 358, (E)-3-(2-(3-(2-((1,5-dimethyl-1H-pyrazol-3-yl)amino)-5-methylpyrimidin-4-yl)-1H-indol-7-yl)-1-oxoisoindolin-4-yl)acrylamide] | < 10 nM |
| Cc1cnc(Nc2cc(C)n(C)n2)nc1-c1c[nH]c2c(N3Cc4c(/C=C/C(=O)N(C)C)ccc(F)c4C3=O)cccc12 [Example 359, (E)-3-(2-(3-(2-((1,5-dimethyl-1H-pyrazol-3-yl)amino)-5-methylpyrimidin-4-yl)-1H-indol-7-yl)-7-fluoro-1-oxoisoindolin-4-yl)-N,N-dimethylacrylamide] | 10 to 100 nM |
| Cc1cnc(Nc2cc(C)n(C)n2)nc1-c1c[nH]c2c(N3Cc4c(/C=C/C(=O)N(C)C)cccc4C3=O)cccc12 [Example 360, (E)-3-(2-(3-(2-((1,5-dimethyl-1H-pyrazol-3-yl)amino)-5-methylpyrimidin-4-yl)-1H-indol-7-yl)-1-oxoisoindolin-4-yl)-N,N-dimethylacrylamide] | < 10 nM |
| C/C(=C\c1cccc2c1CN(c1cccc3c(-c4nc(Nc5cc(C)n(C)n5)ncc4C)c[nH]c13)C2=O)C(N)=O [Example 361, (E)-3-(2-(3-(2-((1,5-dimethyl-1H-pyrazol-3-yl)amino)-5-methylpyrimidin-4-yl)-1H-indol-7-yl)-1-oxoisoindolin-4-yl)-2-methylacrylamide] | < 10 nM |
| CC(=O)/C=C/c1cccc2c1CN(c1cccc3c(-c4nc(Nc5cc(C)n(C)n5)ncc4C)c[nH]c13)C2=O [Example 362, (E)-2-(3-(2-((1,5-dimethyl-1H-pyrazol-3-yl)amino)-5-methylpyrimidin-4-yl)-1H-indol-7-yl)-4-(3-oxobut-1-en-1-yl)isoindolin-1-one] | < 10 nM |
| CNC(=O)/C=C/c1cccc2c1CN(c1cccc3c(-c4nc(Nc5cc(C)n(C)n5)ncc4C)c[nH]c13)C2=O [Example 363, (E)-3-(2-(3-(2-((1,5-dimethyl-1H-pyrazol-3-yl)amino)-5-methylpyrimidin-4-yl)-1H-indol-7-yl)-1-oxoisoindolin-4-yl)-N-methylacrylamide] | < 10 nM |

Second part, the compound after the results:

| IC50 | Structure (SMILES) |
| --- | --- |
| < 10 nM | CCNC(=O)/C=C/c1cccc2c1CN(c1cccc3c(-c4nc(Nc5cc(C)n(C)n5)ncc4C)c[nH]c13)C2=O [Example 364, (E)-3-(2-(3-(2-((1,5-dimethyl-1H-pyrazol-3-yl)amino)-5-methylpyrimidin-4-yl)-1H-indol-7-yl)-1-oxoisoindolin-4-yl)-N-ethylacrylamide] |
| < 10 nM | Cc1cnc(Nc2cc(C)n(C)n2)nc1-c1c[nH]c2c(N3Cc4c(/C=C/C(=O)NC5CC5)cccc4C3=O)cccc12 [Example 365, (E)-N-cyclopropyl-3-(2-(3-(2-((1,5-dimethyl-1H-pyrazol-3-yl)amino)-5-methylpyrimidin-4-yl)-1H-indol-7-yl)-1-oxoisoindolin-4-yl)acrylamide] |
| < 10 nM | Cc1cnc(Nc2cc(C)n(C)n2)nc1-c1c[nH]c2c(N3Cc4c(/C=C/C(=O)NN)cccc4C3=O)cccc12 [Example 366, (E)-3-(2-(3-(2-((1,5-dimethyl-1H-pyrazol-3-yl)amino)-5-methylpyrimidin-4-yl)-1H-indol-7-yl)-1-oxoisoindolin-4-yl)acrylohydrazide] |
| < 10 nM | Cc1cnc(Nc2cc(C)n(C)n2)nc1-c1c[nH]c2c(N3Cc4c(/C=C/C(=O)O)cccc4C3=O)cccc12 [Example 367, (E)-3-(2-(3-(2-((1,5-dimethyl-1H-pyrazol-3-yl)amino)-5-methylpyrimidin-4-yl)-1H-indol-7-yl)-1-oxoisoindolin-4-yl)acrylic acid] |
